Reference: patent US11192891B2, “Diazaspiro ROCK inhibitors” (BRISTOL-MYERS SQUIBB COMPANY, priority 2017, dated 2021)
Where a name gives a salt, the structure may show the parent alone.

Experiments:
ROCK2 = ROCK2 (Homo sapiens, UniProt O75116); test: ROCK kinase inhibition assay, FITC peptide substrate, LABCHIP 3000 readout; assay type: biochemical; conditions: 5 μM ATP, 1.5 μM peptide substrate
Procedure, shortened: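 Tested across a concentration range, with percent inhibition of kinase activity derived per concentration. Peptide phosphorylation, initiated by adding the Rho kinase variant (final DMSO <2%), was quenched with EDTA and substrate/product resolved by mobility shift.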

[1] = system: rat models of hypertension; conditions: cited from earlier work
Dahl salt-sensitive rats = conditions: cited from earlier work
neointimal formation = conditions: rats; cited from earlier work
rat stroke model = conditions: cited from earlier work
[2] = system: IL-1 beta-induced coronary stenosis; conditions: long term treatment, porcine model; cited from earlier work

ROCK2, sequence (O75116 whole entry, species assumed): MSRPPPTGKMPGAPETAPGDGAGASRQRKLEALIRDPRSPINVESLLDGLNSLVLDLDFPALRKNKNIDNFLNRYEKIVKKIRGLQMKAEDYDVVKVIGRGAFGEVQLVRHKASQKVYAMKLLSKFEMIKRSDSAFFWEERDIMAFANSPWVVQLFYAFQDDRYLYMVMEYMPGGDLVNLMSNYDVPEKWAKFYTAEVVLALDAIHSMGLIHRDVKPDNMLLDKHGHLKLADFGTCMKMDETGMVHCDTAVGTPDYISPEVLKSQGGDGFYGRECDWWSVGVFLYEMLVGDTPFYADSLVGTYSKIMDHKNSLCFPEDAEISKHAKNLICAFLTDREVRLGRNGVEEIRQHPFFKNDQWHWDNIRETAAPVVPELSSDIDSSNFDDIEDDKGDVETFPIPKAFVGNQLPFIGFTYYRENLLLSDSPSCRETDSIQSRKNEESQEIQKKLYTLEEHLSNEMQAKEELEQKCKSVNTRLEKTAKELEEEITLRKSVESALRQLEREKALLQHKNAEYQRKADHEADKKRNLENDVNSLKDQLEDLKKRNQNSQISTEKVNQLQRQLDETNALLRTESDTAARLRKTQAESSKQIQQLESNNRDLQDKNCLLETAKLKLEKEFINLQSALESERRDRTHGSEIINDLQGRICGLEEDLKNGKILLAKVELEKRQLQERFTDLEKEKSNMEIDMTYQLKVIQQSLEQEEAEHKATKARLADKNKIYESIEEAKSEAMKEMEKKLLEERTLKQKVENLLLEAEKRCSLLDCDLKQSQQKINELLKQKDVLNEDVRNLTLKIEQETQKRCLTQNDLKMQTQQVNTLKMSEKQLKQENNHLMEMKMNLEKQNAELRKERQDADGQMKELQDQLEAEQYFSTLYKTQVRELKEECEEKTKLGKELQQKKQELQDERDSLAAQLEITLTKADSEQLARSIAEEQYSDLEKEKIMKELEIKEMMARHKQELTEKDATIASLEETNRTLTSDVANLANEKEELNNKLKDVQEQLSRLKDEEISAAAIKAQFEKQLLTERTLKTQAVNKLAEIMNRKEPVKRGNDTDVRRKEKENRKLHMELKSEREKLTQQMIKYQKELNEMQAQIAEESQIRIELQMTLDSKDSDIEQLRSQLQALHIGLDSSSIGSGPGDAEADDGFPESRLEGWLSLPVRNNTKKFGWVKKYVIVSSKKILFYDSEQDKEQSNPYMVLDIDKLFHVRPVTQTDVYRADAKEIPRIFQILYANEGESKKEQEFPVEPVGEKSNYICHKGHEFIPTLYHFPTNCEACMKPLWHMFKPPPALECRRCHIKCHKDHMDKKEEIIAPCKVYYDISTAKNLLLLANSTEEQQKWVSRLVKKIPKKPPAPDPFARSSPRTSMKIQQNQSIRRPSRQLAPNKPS

| SMILES | IC50 (ROCK2) | other results |
| --- | --- | --- |
| COc1cc(N2CCC3(CCN(C(=O)c4ccc(N5CCN(CCC(C)C)CC5)cc4)CC3)C2=O)ccc1-c1cn[nH]c1 [Example 238, 2-[3-methoxy-4-(1H-pyrazol-4-yl)phenyl]-8-{4-[4-(3-methylbutyl)piperazin-1-yl]benzoyl}-2,8-diazaspiro[4.5]decan-1-one] | 1.6 nM | – |
| COc1cc(N2CCC3(CCN(C(=O)c4ccc(N5CCN(CCc6ccccc6)CC5)cc4)CC3)C2=O)ccc1-c1cn[nH]c1 [Example 239, 2-[3-methoxy-4-(1H-pyrazol-4-yl)phenyl]-8-{4-[4-(2-phenylethyl)piperazin-1-yl]benzoyl}-2,8-diazaspiro[4.5]decan-1-one] | 0.6 nM | – |
| COc1cc(N2CCC3(CCN(C(=O)c4ccc(N5CCN(CCC(F)(F)F)CC5)cc4)CC3)C2=O)ccc1-c1cn[nH]c1 [Example 240, 2-[3-methoxy-4-(1H-pyrazol-4-yl)phenyl]-8-{4-[4-(3,3,3-trifluoropropyl)piperazin-1-yl]benzoyl}-2,8-diazaspiro[4.5]decan-1-one] | 1 nM | – |
| COc1cc(N2CCC3(CCN(C(=O)c4ccc(N5CCN(CC(C)(C)C)CC5)cc4)CC3)C2=O)ccc1-c1cn[nH]c1 [Example 241, 8-{4-[4-(2,2-dimethylpropyl)piperazin-1-yl]benzoyl}-2-[3-methoxy-4-(1H-pyrazol-4-yl)phenyl]-2,8-diazaspiro[4.5]decan-1-one] | 0.4 nM | – |
| COc1cc(N2CCC3(CCN(C(=O)c4ccc(N5CCN(C(C)CO)CC5)cc4)CC3)C2=O)ccc1-c1cn[nH]c1 (centres unmarked) [Example 242, 8-{4-[4-(1-hydroxypropan-2-yl)piperazin-1-yl]benzoyl}-2-[3-methoxy-4-(1H-pyrazol-4-yl)phenyl]-2,8-diazaspiro[4.5]decan-1-one] | 0.7 nM | – |
| COc1cc(N2CCC3(CCN(C(=O)c4ccc(N5CCN(Cc6cccnc6)CC5)cc4)CC3)C2=O)ccc1-c1cn[nH]c1 [Example 243, 2-[3-methoxy-4-(1H-pyrazol-4-yl)phenyl]-8-(4-{4-[(pyridin-3-yl)methyl]piperazin-1-yl}benzoyl)-2,8-diazaspiro[4.5]decan-1-one] | 1 nM | – |
| COc1cc(N2CCC3(CCN(C(=O)c4ccc(N5CCN(C6CCN(C)CC6)CC5)cc4)CC3)C2=O)ccc1-c1cn[nH]c1 [Example 244, 2-[3-methoxy-4-(1H-pyrazol-4-yl)phenyl]-8-{4-[4-(1-methylpiperidin-4-yl)piperazin-1-yl]benzoyl}-2,8-diazaspiro[4.5]decan-1-one] | 0.9 nM | – |
| COc1cc(N2CCC3(CCN(C(=O)c4ccc(N5CCN(Cc6ccc(N(C)C)cc6)CC5)cc4)CC3)C2=O)ccc1-c1cn[nH]c1 [Example 245, 8-[4-(4-{[4-(dimethylamino)phenyl]methyl}piperazin-1-yl)benzoyl]-2-[3-methoxy-4-(1H-pyrazol-4-yl)phenyl]-2,8-diazaspiro[4.5]decan-1-one] | 0.1 nM | – |
| COc1cc(N2CCC3(CCN(C(=O)c4ccc(N5CCN(CC6CCOC6)CC5)cc4)CC3)C2=O)ccc1-c1cn[nH]c1 (centres unmarked) [Example 246, 2-[3-methoxy-4-(1H-pyrazol-4-yl)phenyl]-8-(4-{4-[(oxolan-3-yl)methyl]piperazin-1-yl}benzoyl)-2,8-diazaspiro[4.5]decan-1-one] | 0.7 nM | – |
| C[C@@H](N)[C@H]1CC[C@H](C(=O)Nc2ccncc2)CC1 [Example Y-27632] | – | effect on blood pressure in control rats ([1]; control rats): only a minor effect on blood pressure; effect on blood pressure in hypertensive rats ([1]; spontaneously hypertensive, renal hypertensive and deoxycortisone acetate salt hypertensive rat models): significantly decrease blood pressure; ventricular hypertrophy, fibrosis and function (Dahl salt-sensitive rats): improve ventricular hypertrophy, fibrosis and function; neointimal formation (neointimal formation): inhibited neointimal formation |
| O=C1N(c2ccc(-c3cn[nH]c3)cc2)CCC12CCNCC2 [Intermediate 3, 2-(4-(1H-pyrazol-4-yl)phenyl)-2,8-diazaspiro[4.5]decan-1-one, TFA] | 1010 nM | – |
| O=S(=O)(c1cccc2cnccc12)N1CCCNCC1 [fasudil] | – | infarct size and neurologic deficit (rat stroke model): reduce both the infarct size and neurologic deficit; coronary constrictive remodeling [2]: promote a regression of coronary constrictive remodeling; coronary stenosis [2]: progressively reduce coronary stenosis |
